Data published in publication PMC6651387, “Fine-Tuning the Activation Mode of an 1,3-Indandione-Based Ruthenium(II)-Cymene Half-Sandwich Complex by Variation of Its Leaving Group” (Molecules, 2019).
Read-outs that look alike come from different tables or passages of the source.

Tests used:
[1] = Lipophilicity by RP-UHPLC capacity factors (logkw, Φ0); assay type: physicochemical
Source text: It stands to reason that the higher the lipophilicity, the higher the cell accumulation; as far as passive diffusion is concerned, the higher efficiency with which normal cell function is compromised. As a consequence, lipophilicity is an important factor in drug development, described by the partition coefficient logP, which is routinely determined by the distribution of a compound in 1-octanol/water. However, 1-octanol, a solvent said to closely mimic the solubilizing behavior of cell membranes, forms emulsions with water. Additionally, the shake-flask method, seemingly easy, requires long sample preparation, has a low sample throughput, and lacks reproducibility, as it hinges on exact temperature control and consistent equilibration time allotted for every analyte. The time-consuming nature of this method may also lead to decomposition of the analyte. A concentration-, flow rate-, and column length-independent method is the determination of the capacity factor (k) via HPLC. The capacity factor is a measure for the equilibrium concentration between a polar phase (eluent) and an apolar phase (C18 column coating) and higher resemblance to the partition coefficient in […]. […] The percentage of methanol in the eluent at which logk is equal to zero is Φ0 [27, 28, 29].
The capacity factors k were determined with the use of an RP-UHPLC. The necessary chromatograms were recorded with a Dionex UltiMate 3000 RS UHPLC system (Thermo Fisher Scientific, Bedford, MA, USA) controlled by the Dionex Chromeleon 7.2 software. […] The capacity factors were then calculated as logk = log[(tR − t0)/t0], where tR and t0 are the retention times of the analyte and the dead time marker, respectively, at the respective MeOH:0.1% FA in water ratio. Every retention time was determined in isocratic mode for the different eluent ratios to obtain capacity factors in the linear range (−0.5 ≤ logk ≤ 1.5) in triplicate. A plot of logk against the % of the organic eluent yielded logkw (intercept) and S (slope). Φ0, the factor most closely resembling logP, was then determined as follows: Φ0 = −logkw/S [28].

[2] = system: CH1/PA-1 (ovarian teratocarcinoma) cells; assay: MTT antiproliferative assay, CH1/PA-1; assay type: cell-based, human; conditions: exposure time 96 h, means ± standard deviations
Method: CH1/PA-1 (ovarian teratocarcinoma) cells were a generous gift from Lloyd R. Kelland (CRC Centre for Cancer Therapeutics, Institute of Cancer Research, Sutton, UK). A549 (non-small cell lung cancer), SW480, and HCT116 (both colon cancer) cells were kindly provided by the Institute of Cancer Research, Department of Medicine I, Medical University of Vienna, Austria. All cell lines were grown as monolayer cultures in Eagle’s MEM supplemented with L-glutamine (4 mM), sodium pyruvate (1 mM) and 1% (v/v) non-essential amino acid solution (all from Sigma-Aldrich) and 10% (v/v) heat-inactivated fetal calf serum (FCS, BioWest) in 75-cm^2 flasks (Starlab) at 37 °C under a humidified atmosphere containing 5% CO2 in air.
Antiproliferative activity of the compounds was determined with the colorimetric MTT assay (MTT = 3-(4,5-dimethyl-2-thiazolyl)-2,5-diphenyl-2H-tetrazolium bromide). CH1/PA-1, HCT116, SW480, and A549 cells with cell numbers of 1 × 10^3, 1.5 × 10^3, 2 × 10^3, and 3 × 10^3, respectively, were seeded in 100 μL per well into 96-well microculture plates (Starlab). After 24 h, test compounds were dissolved in DMSO (Fisher Scientific), serially diluted in complete MEM not to exceed a final DMSO content of 0.5% (v/v) and added in 100 μL per well. After 96 h, the drug-containing medium was replaced with 100 µL of RPMI 1640/MTT mixture, i. e., 6 parts of RPMI 1640 medium (Sigma-Aldrich; supplemented with 10% heat-inactivated fetal bovine serum and 4 mM L-glutamine), 1 part of MTT solution in phosphate-buffered saline (5 mg/mL; both from Sigma-Aldrich). After incubation for 4 h, the MTT-containing medium was replaced with 150 μL DMSO per well to dissolve the formazan product formed by viable cells. Optical densities at 550 nm (and at the reference wavelength of 690 nm) were measured with a microplate reader (ELx808, Bio-Tek). The IC50 values relative to untreated controls were interpolated from concentration–effect curves. At least three independent experiments were performed, each with triplicates per concentration level.

[3] = system: SW480 (colon cancer) cells; assay: MTT antiproliferative assay, SW480; assay type: cell-based, human; conditions: exposure time 96 h, means ± standard deviations
Method: (§1) CH1/PA-1 (ovarian teratocarcinoma) cells were a generous gift from Lloyd R. Kelland (CRC Centre for Cancer Therapeutics, Institute of Cancer Research, Sutton, UK). A549 (non-small cell lung cancer), SW480, and HCT116 (both colon cancer) cells were kindly provided by the Institute of Cancer Research, Department of Medicine I, Medical University of Vienna, Austria. All cell lines were grown as monolayer cultures in Eagle’s MEM supplemented with L-glutamine (4 mM), sodium pyruvate (1 mM) and 1% (v/v) non-essential amino acid solution (all from Sigma-Aldrich) and 10% (v/v) heat-inactivated fetal calf serum (FCS, BioWest) in 75-cm^2 flasks (Starlab) at 37 °C under a humidified atmosphere containing 5% CO2 in air. […] After 24 h, test compounds were dissolved in DMSO (Fisher Scientific), serially diluted in complete MEM not to exceed a final DMSO content of 0.5% (v/v) and added in 100 μL per well. After 96 h, the drug-containing medium was replaced with 100 µL of RPMI 1640/MTT mixture, i. e., 6 parts of RPMI 1640 medium (Sigma-Aldrich; supplemented with 10% heat-inactivated fetal bovine serum and 4 mM L-glutamine), 1 part of MTT solution in phosphate-buffered saline (5 mg/mL; both from Sigma-Aldrich). After incubation for 4 h, the MTT-containing medium was replaced with 150 μL DMSO per well to dissolve the formazan product formed by viable cells. Optical densities at 550 nm (and at the reference wavelength of 690 nm) were measured with a microplate reader (ELx808, Bio-Tek). The IC50 values relative to untreated controls were interpolated from concentration–effect curves. At least three independent experiments were performed, each with triplicates per concentration level.

[4] = system: HCT116 (colon cancer) cells; assay: MTT antiproliferative assay, HCT116; assay type: cell-based, human; conditions: exposure time 96 h, means ± standard deviations
Method: as §1

[5] = system: A549 (non-small cell lung cancer) cells; assay: MTT antiproliferative assay, A549; assay type: cell-based, human; conditions: exposure time 96 h, means ± standard deviations
Method: as §1

SW480 cells [6] = assay: Cellular accumulation by ICP-MS quantification of ruthenium (or platinum); assay type: cell-based, human; conditions: 50 µM, exposure time 2 h, ICP-MS of ruthenium
Method: Ruthenium accumulation was measured by means of inductively coupled plasma mass spectrometry (ICP-MS) upon 2 h exposure of SW480 cells to 50 µM of each compound.
Cellular accumulation of the compounds was studied based on a previously described method with modifications as follows: SW480 cells with a number of 1.8 × 10^5 per well were seeded into 12-well plates in aliquots of 1 mL complete MEM and incubated at 37 °C for 24 h. Then, cells were exposed for 2 h at 37 °C to 50 μM solutions of the test compounds (containing 0.5% DMSO) in 500 µL of fresh complete MEM upon exchange of the medium. Afterwards, cells were washed three times with PBS, and lyzed with 0.4 mL sub-boiled HNO3 per well for 1 h at room temperature. Ruthenium content was quantified by ICP-MS using an Agilent 7500ce quadrupole ICP-MS instrument (Agilent Technologies, Waldbronn, Germany) equipped with a CETAC ASX-520 autosampler (Nebraska, USA) and a MicroMist nebulizer. Ruthenium and indium standards were obtained from CPI International (Amsterdam, The Netherlands). The instrument was equipped with nickel cones and operated at an RF power of 1560 W, with argon as the plasma gas (15 L/min), carrier gas (1.0–1.1 L/min) and make-up gas (0.1–0.2 L/min). The Agilent MassHunter software package (Workstation Software, Version B.01.01, Build 123.11, Patch 4, 2012) was used for data processing. Results are based on at least three independent experiments, each comprising triplicate samples. The instrument was tuned on a daily basis for maximum sensitivity and doubly charged species as well as oxide rates were <5%.

[7] = MeOH, conventional desk lamp, UV-VIS 250–700 nm
Method: Light activation studies were performed on the same UV-VIS spectrometer. Fourty microliters of solutions (MeOH) were irradiated with a conventional desk lamp, and every 2.5–10 min (depending on progress) a wavelength scan (250–700 nm) was recorded.

[8] = system: CH1/PA-1 (ovarian teratocarcinoma) cells; set-up: method as in PMID 25032896; conditions: MTT assay, 96 h; cited from earlier work
[9] = system: SW480 (colon cancer) cells; set-up: method as in PMID 25032896; conditions: MTT assay, 96 h; cited from earlier work
[10] = system: A549 (non-small cell lung cancer) cells; set-up: method as in PMID 25032896; conditions: MTT assay, 96 h; cited from earlier work
SW480 cells [11] = system: SW480 cells; set-up: method as in PMID 27055943; conditions: exposure time 2 h, platinum; cited from earlier work

| Structure (SMILES) | Intercept logkw ([1]; RP-UHPLC, MeOH/0.1% formic acid in water, 25 °C, logk extrapolated to 100% water) | Φ0 ([1]; percentage of methanol in the eluent at which logk is zero, Φ0 = −logkw/S) | Slope S ([1]; slope of logk against % organic eluent (MeOH)) | IC50 [2] [µM] | IC50 [3] [µM] | IC50 [4] [µM] | IC50 [5] [µM] | cellular accumulation, fg Ru or Pt/Cell (SW480 cells [6]) | time until no more change upon light irradiation (completion of the reaction) [7] [min] | IC50 [8] [µM] | IC50 [9] [µM] | IC50 [10] [µM] | cellular accumulation, fg Ru or Pt/Cell (SW480 cells [11]) |
| --- | --- | --- | --- | --- | --- | --- | --- | --- | --- | --- | --- | --- | --- |
| Cc1ccc(C(C)C)cc1.F[P-](F)(F)(F)(F)F.O=C1C(=C(NCc2ccccc2)[O][Ru+])C(=O)c2ccccc21.c1ccncc1 [1f] | 5.25 | 62.07 | −0.0845 | 8.2 ± 2 | 6.3 ± 1.1 | 20.2 ± 6.4 | 22.1 ± 3.2 | 231 ± 93 fg Ru or Pt/Cell | 75 | – | – | – | – |
| N.N.[Cl][Pt][Cl] [Cisplatin] | – | – | – | – | – | – | – | – | – | 0.077 ± 0.006 | 3.3 ± 0.2 | 6.2 ± 1.2 | 12 ± 2 fg Ru or Pt/Cell |
